In US8211660B2, “In-vivo monitoring of circulating apoptotic cells” (The General Hospital Corporation, priority 2004, dated 2012):

Test system: MatLyLu mouse prostate cancer cells
Test: Apoptosis of camptothecin-pretreated MatLyLu cells verified by conventional flow cytometry (FITC-annexin V / propidium iodide)
Format: cell-based
Settings: MatLyLu cells pretreated with camptothecin
Experimental: MatLyLu […] prostate cancer cells pretreated with camptothecin were employed as a positive control. It was verified by conventional flow cytometry that more than about 80% of the camptothecin-treated cells undergo apoptosis (i.e. >80% of the treated cells were FITC-annexin V^+ positive and propidium iodide negative). The camptothecin-treated cells were then labeled with the AF647-conjugated annexin-V and injected intravenously into the mouse. The circulating annexin-V^+ cells were measured by focusing a He—Ne laser beam having a wavelength of 633 nm through a slit onto an ear vessel (typically a small artery) and confocally detecting the fluorescent bursts (peaks) as individual cells flowed through the probe beam. The emitted fluorescence was detected by a photomultiplier tube and was digitized for analysis. The confocal detection of the emitted fluorescence allowed continuous monitoring over the measurement period of the labeled cells flowing through the vessel.

SMILES: CC[C@@]1(O)C(=O)OCc2c1cc1n(c2=O)Cc2cc3ccccc3nc2-1 [camptothecin]
- treated cells undergoing apoptosis (FITC-annexin V positive and propidium iodide negative): more than 80%
